{"source": "patent US9656953B2", "about": "“Inhibition of cell proliferation” (University of South Florida, priority 2005, dated 2017)", "key": {"A549 tumors": {"test_system": "A549 tumors", "assay": "A549 xenograft in nude mice", "assay_type": "in vivo", "details": "for tumor size, A549 xenograft: vehicle 1039±128 mm^3", "method": "Animal Studies. Nude mice (Charles River, Wilminton, Mass., USA) were maintained in accordance with Institutional Animal Care and Use Committee (IAUCUC) procedures and guidelines. A549 cells were harvested and resuspended in PBS, and then injected s.c. into the right and left flanks (10×10^6 cells per flank) of 8-week old female nude mice as reported previously (Sun 99). When tumors reached about 100-200 mm^3, animals were dosed intraperitoneally i.p. or orally by gavage with 0.1 mL solution once daily. […] The tumor volumes were determined by measuring the length (l) and the width (w) and calculating the volume (V=lw^2/2) as described previously (Sun 99). Statistical significance between control and treated animals were evaluated using Student's t-test."}, "[1]": {"test_system": "A549 cells stably expressing sh8", "assay": "BrdU incorporation, A549 Rb shRNA sh8", "assay_type": "cell-based, human", "details": "20 μM, Rb knock down", "method": "(§1) Proliferation assays. Bromodeoxyuridine (BrdU) labeling kits were obtained from Roche Biochemicals (Indianapolis, Ind.). Cells were plated in poly-D-lysine coated chamber slides at a density of 10,000 cells per well and rendered quiescent by serum starvation for 24 hours. Cells were then re-stimulated with serum in the presence or absence of the indicated drugs for 18 h. S-phase cells were visualized by microscopy and quantitated by counting 3 fields of 100 in quadruplicate.\nTo further confirm that 3a requires a functional Rb to inhibit tumor cell proliferation, A549 cells (human epithelial lung carcinoma) were stably transfected with two different shRNA constructs (sh6 and sh8) to knock down Rb expression."}, "cyclin D kinase activity": {"test_system": "cyclin D kinase activity", "assay": "In vitro kinase assay, cyclin D", "assay_type": "biochemical", "method": "In vitro kinase assay. The kinase reaction for Raf-1 was carried out with 100 nanograms (ng) of Raf-1 (Upstate Signaling, Charlottesville, Va.), 0.5 μg of full-length Rb protein (QED Bioscience, San Diego, Calif.) as the substrate, 10 μM ATP, 10 μCi of [γ-^32P] ATP in the kinase assay buffer in the presence or absence of the drugs at 30° C. for 30 minutes. Cyclin D and E kinase assays are described in (Dasgupta 2004)."}, "Rb binding to E2F1": {"target": "T1, Rb binding to E2F1 (Homo sapiens, UniProt P06400+Q01094)", "T1 construct": "endogenous in cells; host or cells: A549", "T1 sequence (P06400 whole entry)": "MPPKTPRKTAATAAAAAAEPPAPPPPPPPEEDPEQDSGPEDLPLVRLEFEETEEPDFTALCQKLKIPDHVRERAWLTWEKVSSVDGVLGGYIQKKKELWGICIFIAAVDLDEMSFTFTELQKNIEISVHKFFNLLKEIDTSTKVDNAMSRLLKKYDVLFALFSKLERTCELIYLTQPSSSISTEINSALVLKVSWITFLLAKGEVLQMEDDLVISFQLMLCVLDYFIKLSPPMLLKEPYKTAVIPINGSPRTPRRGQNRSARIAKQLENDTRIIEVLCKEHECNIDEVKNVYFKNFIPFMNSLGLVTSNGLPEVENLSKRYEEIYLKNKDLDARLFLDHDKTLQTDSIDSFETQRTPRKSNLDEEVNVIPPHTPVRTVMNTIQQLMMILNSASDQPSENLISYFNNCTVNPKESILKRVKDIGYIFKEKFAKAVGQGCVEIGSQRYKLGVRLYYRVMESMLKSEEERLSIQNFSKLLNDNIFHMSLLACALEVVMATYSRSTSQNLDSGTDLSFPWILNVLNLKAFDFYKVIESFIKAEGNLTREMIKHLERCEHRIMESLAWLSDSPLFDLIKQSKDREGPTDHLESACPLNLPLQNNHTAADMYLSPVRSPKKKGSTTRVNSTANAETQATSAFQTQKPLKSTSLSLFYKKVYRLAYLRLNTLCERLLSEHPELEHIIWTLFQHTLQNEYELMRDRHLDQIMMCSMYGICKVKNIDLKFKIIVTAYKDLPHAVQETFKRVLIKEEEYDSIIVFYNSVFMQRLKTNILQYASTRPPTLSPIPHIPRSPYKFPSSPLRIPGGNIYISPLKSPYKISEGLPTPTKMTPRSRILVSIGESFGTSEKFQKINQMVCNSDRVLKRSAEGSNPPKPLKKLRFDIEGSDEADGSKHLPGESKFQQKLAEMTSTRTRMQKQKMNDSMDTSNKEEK", "T1 sequence (Q01094 whole entry)": "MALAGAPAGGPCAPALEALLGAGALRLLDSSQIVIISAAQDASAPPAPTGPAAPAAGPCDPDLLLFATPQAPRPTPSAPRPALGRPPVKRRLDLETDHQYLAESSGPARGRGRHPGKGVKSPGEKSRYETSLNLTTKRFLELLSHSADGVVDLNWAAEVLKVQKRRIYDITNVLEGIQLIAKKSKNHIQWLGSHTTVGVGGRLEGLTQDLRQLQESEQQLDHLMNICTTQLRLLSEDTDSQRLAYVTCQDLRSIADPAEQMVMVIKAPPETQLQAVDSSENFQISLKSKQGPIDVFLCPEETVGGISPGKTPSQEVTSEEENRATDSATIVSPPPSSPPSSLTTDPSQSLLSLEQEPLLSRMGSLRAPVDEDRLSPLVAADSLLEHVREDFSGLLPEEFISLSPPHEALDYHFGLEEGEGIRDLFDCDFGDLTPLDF", "assay": "IP-western, A-549 cells, Rb-E2F1", "assay_type": "cell-based", "from_the_text": "(§2) Lysate preparation, pmmunoprecipitation, and pestern plotting."}, "Saos-2 cells": {"test_system": "Saos-2 cells", "assay": "BrdU incorporation, S-phase entry, Saos-2", "assay_type": "cell-based", "details": "20 μM, 18 hours, Rb null", "method": "as §1\n(§3) Given the selectivity of 3a described in FIGS. 1 and 2 above for disrupting the Rb:Raf-1 interaction, it was examined if 3a can inhibit the proliferation of cells and whether such an inhibition required a functional Rb gene."}, "U2-OS cells": {"test_system": "U2-OS cells", "assay": "BrdU incorporation, S-phase entry, U2-OS", "assay_type": "cell-based", "details": "20 μM, 18 hours, Rb wild type", "method": "as §1, §3"}, "H1650 cells": {"test_system": "H1650 cells", "assay": "Soft agar assay, H1650", "assay_type": "cell-based", "method": "(§4) Soft Agar Assay. Soft agar assays were done in triplicate in 12-well plates (Corning, Corning N.Y.). First, the bottom layer of agar (0.6%) was allowed to solidify at room temperature. Next the top layer of agar was (0.3%) was mixed with 5,000 cells per well and the indicated drug. The drugs were added twice weekly in complete media to the agar wells. Colonies were quantified by staining with MTT (3-(4,5-Dimethylthiazol-2-yl)-2,5-diphenyltetrazolium bromide) 1 mg/mL for 1 hour at 37° C.\n(§5) Experiments were also carried out to examine the effect of 3a in inhibiting the adherence-independent growth of cancer cells in soft agar."}, "SK-MEL-5 cells": {"test_system": "SK-MEL-5 cells", "assay": "Soft agar assay, SK-MEL-5", "assay_type": "cell-based", "method": "as §4, §5"}, "[2]": {"test_system": "Human aortic endothelial cells (HAECs)", "assay": "Matrigel angiogenic tubule formation", "assay_type": "cell-based", "details": "20 μM", "method": "Matrigel assays. […] A total of 100 μl of thawed Matrigel was added to 96-well tissue culture plates, followed by incubation at 37° C. for 60 minutes to allow polymerization. […] Capillary tube formation assessed by using a Leica DMIL phase contrast microscope.\nAn experiment was performed to determine whether angiogenic tubule formation could be inhibited by the disclosed compounds."}, "A549-sh8 tumors": {"test_system": "A549-sh8 tumors", "assay": "A549-sh8 (Rb shRNA) xenograft in nude mice", "assay_type": "in vivo", "details": "150 mpk orally", "method": "Animal Studies. Nude mice (Charles River, Wilminton, Mass., USA) were maintained in accordance with Institutional Animal Care and Use Committee (IAUCUC) procedures and guidelines. A549 cells were harvested and resuspended in PBS, and then injected s.c. into the right and left flanks (10×10^6 cells per flank) of 8-week old female nude mice as reported previously (Sun 99). When tumors reached about 100-200 mm^3, animals were dosed intraperitoneally i.p. or orally by gavage with 0.1 mL solution once daily. Control animals received a vehicle, whereas treated animals were given 3a or RRD-238a at the indicated doses. The tumor volumes were determined by measuring the length (l) and the width (w) and calculating the volume (V=lw^2/2) as described previously (Sun 99). Statistical significance between control and treated animals were evaluated using Student's t-test.\nAthymic nude mice were implanted with 1×10^7 A549 cells bilaterally and the tumors were allowed to reach 200 mm^3 in size before treatment began. […] Furthermore, to examine whether 3a could affect the growth of tumors lacking Rb in vivo, sh6 and sh8 (shRNA for Rb) cell lines were implanted into the flanks of nude mice. The mice were given 3a orally at 150 mpk and the control groups were administered the vehicle."}, "A549 cells": {"test_system": "A549 cells", "assay": "Soft agar assay, A549", "assay_type": "cell-based, human", "method": "as §4, §5"}, "[3]": {"target": "T2, Rb:Raf-1 interaction in tumor xenografts (Homo sapiens, UniProt P04049+P06400)", "T2 construct": "from tissue; host or cells: A549 xenograft tumors from nude mice", "T2 sequence (P06400 whole entry)": "as the sequence (P06400 whole entry) above", "T2 sequence (P04049 whole entry)": "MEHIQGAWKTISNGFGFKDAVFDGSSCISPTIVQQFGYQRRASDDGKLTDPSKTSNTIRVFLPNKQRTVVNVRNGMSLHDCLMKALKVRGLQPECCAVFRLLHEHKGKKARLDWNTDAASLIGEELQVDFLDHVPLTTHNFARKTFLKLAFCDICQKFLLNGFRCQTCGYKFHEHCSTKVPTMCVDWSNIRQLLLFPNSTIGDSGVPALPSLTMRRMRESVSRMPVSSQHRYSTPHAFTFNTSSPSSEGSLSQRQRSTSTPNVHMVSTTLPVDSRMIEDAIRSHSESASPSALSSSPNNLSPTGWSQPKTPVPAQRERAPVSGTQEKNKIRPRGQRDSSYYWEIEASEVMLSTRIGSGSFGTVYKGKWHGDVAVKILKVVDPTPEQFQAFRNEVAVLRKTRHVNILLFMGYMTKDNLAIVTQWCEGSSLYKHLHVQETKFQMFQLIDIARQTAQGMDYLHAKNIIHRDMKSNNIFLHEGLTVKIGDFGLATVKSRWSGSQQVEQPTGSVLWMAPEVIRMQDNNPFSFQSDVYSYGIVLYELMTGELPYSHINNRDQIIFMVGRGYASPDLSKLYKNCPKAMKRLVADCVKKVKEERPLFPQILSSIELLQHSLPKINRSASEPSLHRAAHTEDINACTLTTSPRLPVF", "assay": "IP-Western of tumor lysates, Rb:Raf-1", "assay_type": "in vivo, nude mice", "details": "both doses", "method": "as §2\nAt the end of the drug treatment, the A549 tumors were removed from the mice and fixed in formalin or snap frozen in liquid nitrogen for further histochemical analysis. The tumors were analyzed by immunohistochemistry staining with hematoxylin and eosin (H&E), TUNEL, Ki-67, phospho-Rb (807,811), and CD-31. […] Tumors were homogenized and lysates were prepared to assess the inhibition of Rb:Raf-1 interaction in vivo."}, "[4]": {"target": "T3, Rb/E2F1 interaction in tumor xenografts (Homo sapiens, UniProt P06400+Q01094)", "T3 construct": "from tissue; host or cells: A549 xenograft tumors from nude mice", "T3 sequence (P06400 whole entry)": "as the sequence (P06400 whole entry) above", "T3 sequence (Q01094 whole entry)": "as the sequence (Q01094 whole entry) above", "assay": "IP-Western of tumor lysates, Rb/E2F1", "assay_type": "in vivo, nude mice", "details": "both doses"}}, "note": "Entries after “also recorded” stand apart in the source; their conditions may differ.", "data": [{"smiles": "Cl.N=C(N)SCc1ccc(Cl)cc1Cl", "note": "[Compound 3a]", "values": [{"measurement": "A549 tumor growth in words, 3a", "setting": "A549 tumors; 50 mpk/day i.p. or 150 mpk/day oral", "value": "completely inhibit tumor growth; also recorded: did not grow"}, {"measurement": "tumor size, A549 xenograft", "setting": "A549 tumors; 50 mpk/day i.p.", "value": "144±20", "unit": "mm^3"}, {"measurement": "tumor size, A549 xenograft", "setting": "A549 tumors; 150 mpk/day oral", "value": "148±32", "unit": "mm^3"}, {"measurement": "S-phase entry (BrdU), A549 sh8", "setting": "[1]", "value": "does not inhibit the proliferation; also recorded: no effect"}, {"measurement": "cyclin D kinase activity", "setting": "cyclin D kinase activity", "value": "does not inhibit; also recorded: did not affect the kinase activities"}, {"measurement": "Rb binding to E2F1", "setting": "Rb binding to E2F1", "value": "not affected"}, {"measurement": "S-phase entry (BrdU), Saos-2", "setting": "Saos-2 cells", "value": "little effect"}, {"measurement": "S-phase entry (BrdU), U2-OS", "setting": "U2-OS cells", "value": "inhibited S-phase entry"}, {"measurement": "adherence-independent growth in soft agar, H1650", "setting": "H1650 cells", "value": "significantly inhibited the growth"}, {"measurement": "adherence-independent growth in soft agar, SK-MEL-5", "setting": "SK-MEL-5 cells", "value": "significantly inhibited the growth"}, {"measurement": "angiogenic tubule formation in matrigel", "setting": "[2]", "value": "inhibit angiogenic tubule formation; also recorded: significantly inhibited the angiogenic tubule formation"}, {"measurement": "tumor growth, A549-sh8 tumors lacking Rb", "setting": "A549-sh8 tumors", "value": "unable to inhibit tumor growth; also recorded: did not respond"}, {"measurement": "adherence-independent growth in soft agar, A549", "setting": "A549 cells", "value": "significantly inhibited the growth"}, {"measurement": "Rb:Raf-1 interaction in tumor lysates", "setting": "[3]", "value": "inhibit the Rb:Raf-1 interaction in tumor lysates"}, {"measurement": "Rb/E2F1 interaction in tumor lysates", "setting": "[4]", "value": "without inhibiting Rb-E2F1 interaction; also recorded: not Rb/E2F1 interaction"}]}]}
